Results: patent US6087373A, “Thrombin inhibitors” (Merck & Co., Inc., priority 1998, dated 2000)
Where a SMILES comes first, the peptide text is derived from it. [ ]: non-standard residue; d: D form. The star is where a group is joined. pNA = O=[N+]([O-])c1ccc(N*)cc1; Sar = CNCC(=O)O

Experiments:
human a-thrombin = target: T1, human a-thrombin (Homo sapiens, UniProt P00734); assay: In vitro assay for determining proteinase inhibition (human a-thrombin, hydrolysis of p-nitroanilide or fluorogenic substrate); type: biochemical; conditions: 25° C., 0.05 M TRIS buffer pH 7.4, 0.15 M NaCl, 0.1% PEG
T1 construct: human a-thrombin
Method: In vitro assay for determining proteinase inhibition
(§1) Assays of human a-thrombin and human trypsin were performed at 25° C. in 0.05 M TRIS buffer pH 7.4, 0.15 M NaCl, 0.1% PEG. Trypsin assays also contained 1 mM CaCl2.
Concentrations of stock solutions of Z-GPR-afc were determined from measurements of absorbance at 380 nm of the 7-amino-4-trifluoromethylcoumarin produced upon complete hydrolysis of an aliquot of the stock solution by thrombin.
Activity assays were performed by diluting a stock solution of substrate at least tenfold to a final concentration ≤0.5 Km into a solution containing enzyme or enzyme equilibrated with inhibitor. Times required to achieve equilibration between enzyme and inhibitor were determined in control experiments. Initial velocities of product formation in the absence (Vo) or presence of inhibitor (Vi) were measured. Assuming competitive inhibition, and that unity is negligible compared Km /[S], […] (where [S], [I], and e respectively represent the total concentrations, of substrate, inhibitor and enzyme), the equilibrium constant (Ki) for dissociation of the inhibitor from the enzyme can be obtained from the dependence of Vo /Vi on [I] shown in equation 1.

human trypsin = assay: Substrate hydrolysis by human trypsin (Km); type: biochemical; conditions: p-nitroanilide substrate, 405 nm, 25° C., pH 7.4, 1 mM CaCl2
Method: as §1

| SMILES | Ki (human a-thrombin) | Km (human trypsin) |
| --- | --- | --- |
| Cc1nc(N)ccc1CNC(=O)Cn1c(C)cc2c(c1=O)NC(=O)CC2 | 350 nM | – |
| CC[C@H](C)CC1Cc2cc(C)n(CC(=O)NCc3ccc(N)nc3C)c(=O)c2NC1=O (stereo partly drawn) | 0.52 nM | – |
| CNCC(=O)N1CCC[C@H]1C(=O)N[C@@H](CCCNC(=N)N)C(=O)Nc1ccc([N+](=O)[O-])cc1 [sar-PR-pna, sarcosine-Pro-Arg-p-nitroanilide] (H-[Sar]-Pro-Arg-pNA) | – | 59 µM |

The next lines start with results.

| Ki (human a-thrombin) | SMILES | Km (human trypsin) |
| --- | --- | --- |
| 1.1 nM | Cc1nc(N)ccc1CNC(=O)Cn1c(C)cc2c(c1=O)NC(=O)C(Cc1cccc(F)c1)C2 (stereo not drawn) | – |
| 0.64 nM | Cc1nc(N)ccc1CNC(=O)Cn1c(C)cc2c(c1=O)NC(=O)C(Cc1cc(F)ccc1F)C2 (stereo not drawn) | – |
| 1.5 nM | Cc1nc(N)ccc1CNC(=O)Cn1c(C)cc2c(c1=O)NC(=O)C(Cc1cc(F)cc(F)c1)C2 (stereo not drawn) | – |
